Tests used:
hNav 1.7 = hNav 1.7 (Homo sapiens (Human), UniProt Q15858); test: Electrophysiological evaluation, automated patch clamp IonWorks Quattro (Population Patch Clamp mode); type: cell-based; details: HEK293A cells stably expressing hNav 1.7/β1/β2; response to second depolarization pulse, pre-pulse potential set to V1/2; read-out: hNav1.7 IC50
[1] = system: mice and rats affected by thermal hyperalgesia; test: Thermal hyperalgesia assay; type: in vivo; details: oral administration, constant dose, against the vehicle treatment group; latency to escape behaviors after thermal stimulation of hind paw;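 note: measurement times set by the study director and not disclosed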

Chain of hNav 1.7 (Q15858 whole entry): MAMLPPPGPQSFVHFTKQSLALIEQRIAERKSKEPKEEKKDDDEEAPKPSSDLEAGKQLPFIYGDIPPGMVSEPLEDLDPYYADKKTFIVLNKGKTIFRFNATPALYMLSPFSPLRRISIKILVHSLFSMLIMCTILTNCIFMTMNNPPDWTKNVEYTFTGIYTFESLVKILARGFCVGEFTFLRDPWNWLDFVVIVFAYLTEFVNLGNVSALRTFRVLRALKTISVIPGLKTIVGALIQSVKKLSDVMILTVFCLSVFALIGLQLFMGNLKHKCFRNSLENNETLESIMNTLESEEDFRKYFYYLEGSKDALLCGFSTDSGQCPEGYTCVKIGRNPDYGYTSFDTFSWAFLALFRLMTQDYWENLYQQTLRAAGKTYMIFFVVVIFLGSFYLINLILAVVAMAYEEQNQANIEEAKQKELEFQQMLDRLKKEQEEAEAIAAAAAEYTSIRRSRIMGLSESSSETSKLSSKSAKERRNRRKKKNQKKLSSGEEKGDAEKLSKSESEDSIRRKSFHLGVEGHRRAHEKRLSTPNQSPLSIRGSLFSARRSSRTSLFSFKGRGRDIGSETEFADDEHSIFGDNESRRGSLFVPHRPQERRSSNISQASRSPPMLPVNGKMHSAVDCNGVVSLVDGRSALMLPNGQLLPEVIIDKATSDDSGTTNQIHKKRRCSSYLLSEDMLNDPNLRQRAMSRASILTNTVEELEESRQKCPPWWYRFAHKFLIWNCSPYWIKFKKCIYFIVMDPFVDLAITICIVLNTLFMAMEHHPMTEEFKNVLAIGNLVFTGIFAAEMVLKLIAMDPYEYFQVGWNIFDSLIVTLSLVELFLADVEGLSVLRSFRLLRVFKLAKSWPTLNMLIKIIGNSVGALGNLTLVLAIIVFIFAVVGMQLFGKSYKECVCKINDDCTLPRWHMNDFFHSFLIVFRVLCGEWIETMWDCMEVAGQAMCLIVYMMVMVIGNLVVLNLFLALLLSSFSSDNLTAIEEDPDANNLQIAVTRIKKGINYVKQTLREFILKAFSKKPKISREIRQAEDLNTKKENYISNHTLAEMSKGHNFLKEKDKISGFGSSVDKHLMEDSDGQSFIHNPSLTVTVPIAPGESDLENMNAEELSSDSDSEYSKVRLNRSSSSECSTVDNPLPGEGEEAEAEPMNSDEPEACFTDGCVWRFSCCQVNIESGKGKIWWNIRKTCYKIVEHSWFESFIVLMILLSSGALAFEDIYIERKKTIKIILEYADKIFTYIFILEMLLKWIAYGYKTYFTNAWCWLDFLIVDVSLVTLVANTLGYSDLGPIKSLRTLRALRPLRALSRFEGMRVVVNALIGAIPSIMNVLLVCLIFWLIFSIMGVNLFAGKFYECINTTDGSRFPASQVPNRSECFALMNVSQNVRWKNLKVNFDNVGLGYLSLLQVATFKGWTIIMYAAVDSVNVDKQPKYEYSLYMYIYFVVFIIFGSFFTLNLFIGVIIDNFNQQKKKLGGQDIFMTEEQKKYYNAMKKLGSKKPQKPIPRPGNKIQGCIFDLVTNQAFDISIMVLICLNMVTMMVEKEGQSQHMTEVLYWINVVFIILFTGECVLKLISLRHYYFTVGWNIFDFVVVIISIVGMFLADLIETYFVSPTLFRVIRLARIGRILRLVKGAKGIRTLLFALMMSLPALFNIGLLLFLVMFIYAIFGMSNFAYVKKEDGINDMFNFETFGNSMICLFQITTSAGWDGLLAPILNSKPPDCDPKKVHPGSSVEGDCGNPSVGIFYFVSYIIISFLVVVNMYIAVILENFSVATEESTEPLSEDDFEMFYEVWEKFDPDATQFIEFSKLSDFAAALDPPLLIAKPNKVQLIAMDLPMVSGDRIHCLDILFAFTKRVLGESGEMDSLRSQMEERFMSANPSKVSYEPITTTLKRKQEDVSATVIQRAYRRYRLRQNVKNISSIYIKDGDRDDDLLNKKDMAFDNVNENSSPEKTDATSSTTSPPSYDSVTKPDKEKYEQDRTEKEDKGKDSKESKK
Chain of hNav 1.7 (Q07699 19-218 partner): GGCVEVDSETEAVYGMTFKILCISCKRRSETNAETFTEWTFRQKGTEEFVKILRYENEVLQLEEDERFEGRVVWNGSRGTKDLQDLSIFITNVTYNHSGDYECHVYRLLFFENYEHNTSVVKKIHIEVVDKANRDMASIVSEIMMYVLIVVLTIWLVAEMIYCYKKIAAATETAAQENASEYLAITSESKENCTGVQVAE
Chain of hNav 1.7 (O60939 30-215 partner): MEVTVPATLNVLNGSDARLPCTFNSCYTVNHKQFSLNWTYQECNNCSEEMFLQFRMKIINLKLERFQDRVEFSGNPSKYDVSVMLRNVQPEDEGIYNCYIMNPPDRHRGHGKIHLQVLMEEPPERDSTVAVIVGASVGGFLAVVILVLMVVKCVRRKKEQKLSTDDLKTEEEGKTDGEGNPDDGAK

Which IC50 (hNav 1.7) does the source give for `Cn1nccc1[C@H]1CCC[C@@H]1Oc1ccc(S(=O)(=O)Nc2ccnc(F)n2)c(F)c1` (relative stereo) [Example 114, 2-Fluoro-N-(2-fluoropyrimidin-4-yl)-4-{[(1S*,2R*)-2-(1-methyl-1H-pyrazol-5-yl)cyclopentyl]oxy}benzenesulfonamide] here?
Its IC50 is 78 nM.

What about the “Ratio of improving pain score (%)” value [1] of the same compound?
Its value is “B (“B” when the rate was 31 to 60%)”.

How did the IC50 (hNav 1.7) turn out when `Cn1nccc1[C@H]1C[C@@H](OCc2ccccc2)C[C@@H]1Oc1cc(F)c(S(=O)(=O)Nc2ccncn2)cc1F` (relative stereo) [Example 97, 4-{[(1S*,2R*,4R*)-4-(Benzyloxy)-2-(1-methyl-1H-pyrazol-5-yl)cyclopentyl]oxy}-2,5-difluoro-N-(pyrimidin-4-yl)benzenesulfonamide] was run?
The IC50 was 34 nM.

What about the “Ratio of improving pain score (%)” value [1] of the same compound?
The value was “C (“C” when the rate was 0 to 30%)”.

How did the IC50 (hNav 1.7) turn out when `CCn1nccc1[C@H]1CCCC[C@@H]1Oc1ccc(S(=O)(=O)Nc2ccncn2)c(F)c1F` (relative stereo) [Example 41, 4-{[(1S*,2R*)-2-(1-Ethyl-1H-pyrazol-5-yl)cyclohexyl]oxy}-2,3-difluoro-N-(pyrimidin-4-yl)benzenesulfonamide] was run?
Its IC50 is 160 nM.

And the “Ratio of improving pain score (%)” value [1]?
Its value is “B (“B” when the rate was 31 to 60%)”.

For `Cn1nccc1[C@H]1CC(F)(F)C[C@@H]1Oc1ccc(S(=O)(=O)Nc2ccncn2)c(F)c1F` (relative stereo) [Example 132, 4-{[(1S*,2R*)-4,4-Difluoro-2-(1-methyl-1H-pyrazol-5-yl)cyclopentyl]oxy}-2,3-difluoro-N-(pyrimidin-4-yl)benzenesulfonamide], which IC50 (hNav 1.7) is on record?
Its IC50 is 200 nM.

And the “Ratio of improving pain score (%)” value [1]?
Its value is “A (“A” when the rate was 61 to 100%)”.

Which results are given for `Cc1cc(S(=O)(=O)Nc2ccncn2)c(F)cc1O[C@H]1CCC[C@@H]1c1c[nH]nc1N` (relative stereo) [Example 85, 4-{[(1S*,2R*)-2-(3-Amino-1H-pyrazol-4-yl)cyclopentyl]oxy}-2-fluoro-5-methyl-N-(pyrimidin-4-yl)benzenesulfonamide]?
IC50 (hNav 1.7): 170 nM; Ratio of improving pain score (%) [1]: B (“B” when the rate was 31 to 60%)

For `Cn1nccc1[C@H]1CCC[C@@H]1Oc1ccc(S(=O)(=O)Nc2ccncn2)c(F)c1Cl` (relative stereo) [Example 80, 3-Chloro-2-fluoro-4-{[(1S*,2R*)-2-(1-methyl-1H-pyrazol-5-yl)cyclopentyl]oxy}-N-(pyrimidin-4-yl)benzenesulfonamide], which IC50 (hNav 1.7) is on record?
Its IC50 is 86 nM.

And the “Ratio of improving pain score (%)” value [1]?
The value was “C (“C” when the rate was 0 to 30%)”.

For `Nc1cc([C@H]2CCCC[C@@H]2Oc2cc(F)c(S(=O)(=O)Nc3ccncn3)cc2F)ccn1` (relative stereo) [Example 35, 4-{[(1S*,2R*)-2-(2-Aminopyridin-4-yl)cyclohexyl]oxy}-2,5-difluoro-N-(pyrimidin-4-yl)benzenesulfonamide], which IC50 (hNav 1.7) is on record?
The IC50 was 99 nM.

What about the “Ratio of improving pain score (%)” value [1] of the same compound?
Its value is “B (“B” when the rate was 31 to 60%)”.

With `Cc1c(O[C@H]2CCCC[C@@H]2c2c[nH]nc2N)ccc(S(=O)(=O)Nc2ccncn2)c1F` (relative stereo) [Example 73, 4-{[(1S*,2R*)-2-(3-Amino-1H-pyrazol-4-yl)cyclohexyl]oxy}-2-fluoro-3-methyl-N-(pyrimidin-4-yl)benzenesulfonamide] as the compound, how does the IC50 (hNav 1.7) read?
The IC50 was 100 nM.

What about the “Ratio of improving pain score (%)” value [1] of the same compound?
The value was “A (“A” when the rate was 61 to 100%)”.

`CC(=O)Nc1n[nH]cc1[C@H]1CCCC[C@@H]1Oc1cc(F)c(S(=O)(=O)Nc2ccncn2)cc1C` (relative stereo) [Example 96, N-(4-{(1R*,2S*)-2-[5-fluoro-2-methyl-4-((pyrimidin-4-yl)sulfamoyl)phenoxy]cyclohexyl}-1H-pyrazol-3-yl)acetamide] was tested. Which IC50 (hNav 1.7) did it give?
The IC50 was 250 nM.

And the “Ratio of improving pain score (%)” value [1]?
Its value is “A (“A” when the rate was 61 to 100%)”.

Which results are given for `Cn1nccc1[C@H]1CCCCC[C@@H]1Oc1ccc(S(=O)(=O)Nc2ccncn2)c(F)c1F` (relative stereo) [Example 51, 2,3-Difluoro-4-{[(1S*,2R*)-2-(1-methyl-1H-pyrazol-5-yl)cycloheptyl]oxy}-N-(pyrimidin-4-yl)benzenesulfonamide]?
IC50 (hNav 1.7): 750 nM; Ratio of improving pain score (%) [1]: B (“B” when the rate was 31 to 60%)

— US9493448B2, “Cycloalkane derivatives” (Daiichi Sankyo Company, Limited, priority 2012, dated 2016)
